In ChEMBL document CHEMBL5620389, “Development of diphenylmethylpiperazine hybrids of chloroquinoline and triazolopyrimidine using Petasis reaction as new cysteine proteases inhibitors for malaria therapeutics” (Eur J Med Chem, 2023):
Calls of active or inactive are those of the source.

Tests used:
Plasmodium falciparum [1] = assay: Antimalarial activity against chloroquine-sensitive Plasmodium falciparum 3D7 infected in RBC incubated for 50 hrs by SYBR green I staining based microplate reader assay; type: functional, organism-based; conditions: 3D7, Erythrocyte
Erythrocyte = assay: Hemolytic activity in human RBC at 100 uM incubated for 2 hrs by microplate reader analysis; type: toxicity, cell-based
Plasmodium falciparum [2] = assay: Antimalarial activity against chloroquine-resistant Plasmodium falciparum W2 infected in RBC incubated for 50 hrs by SYBR green I staining based microplate reader assay; type: functional, organism-based; conditions: W2, Erythrocyte
[3] = Cytotoxicity against human […] cells incubated for 24 hrs by MTT assay; type: toxicity, cell-based
[4] = Cytotoxicity against African green monkey Vero cells at 1000 uM; type: toxicity, cell-based; conditions: chlorocebus sabaeus
Falcipain 2 = target: T1, Falcipain 2 (Plasmodium falciparum, UniProt Q9N6S8); assay: Inhibition of Plasmodium falciparum FP2 using Z-Leu-Arg-AMC as substrate preincubated for 30 mins followed by substrate addition and measured for 30 mins by spectrofluorometer analysis
T1 sequence (Q9N6S8 whole entry): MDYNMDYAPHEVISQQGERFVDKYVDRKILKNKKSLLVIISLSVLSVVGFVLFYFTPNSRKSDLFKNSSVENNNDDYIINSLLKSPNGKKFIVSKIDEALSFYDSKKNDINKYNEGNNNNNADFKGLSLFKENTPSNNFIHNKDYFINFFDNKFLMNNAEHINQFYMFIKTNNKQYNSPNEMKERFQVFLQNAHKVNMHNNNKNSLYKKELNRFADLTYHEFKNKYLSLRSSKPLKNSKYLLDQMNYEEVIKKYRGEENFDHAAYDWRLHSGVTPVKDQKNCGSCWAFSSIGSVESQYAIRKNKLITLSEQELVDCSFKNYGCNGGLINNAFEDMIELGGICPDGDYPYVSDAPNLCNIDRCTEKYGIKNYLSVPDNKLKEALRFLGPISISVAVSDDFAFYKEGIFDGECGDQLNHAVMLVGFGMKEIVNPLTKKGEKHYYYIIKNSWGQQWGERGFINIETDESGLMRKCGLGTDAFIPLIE

Falcipain-3 = target: T2, Falcipain-3 (Plasmodium falciparum 3D7, UniProt Q8IIL0); assay: Inhibition of Plasmodium falciparum FP3 using Z-Leu-Arg-AMC as substrate preincubated for 30 mins followed by substrate addition and measured for 30 mins by spectrofluorometer analysis
T2 sequence (Q8IIL0 whole entry): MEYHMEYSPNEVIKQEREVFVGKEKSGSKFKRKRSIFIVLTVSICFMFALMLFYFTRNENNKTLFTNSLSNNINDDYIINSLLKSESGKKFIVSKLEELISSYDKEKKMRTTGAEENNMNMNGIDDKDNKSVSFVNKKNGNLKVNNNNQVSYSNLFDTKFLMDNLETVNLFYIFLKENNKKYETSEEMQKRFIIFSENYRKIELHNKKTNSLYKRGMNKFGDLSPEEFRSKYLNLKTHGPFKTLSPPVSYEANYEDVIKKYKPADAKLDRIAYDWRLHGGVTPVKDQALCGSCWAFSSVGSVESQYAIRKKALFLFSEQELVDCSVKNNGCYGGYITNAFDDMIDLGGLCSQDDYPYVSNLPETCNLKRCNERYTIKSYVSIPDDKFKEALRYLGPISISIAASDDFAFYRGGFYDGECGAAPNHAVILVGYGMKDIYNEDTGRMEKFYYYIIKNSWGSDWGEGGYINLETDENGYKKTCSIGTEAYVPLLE

Plasmodium falciparum [5] = assay: Antiplasmodial activity against synchronized Plasmodium falciparum 3D7 assessed as arrest in parasite development at trophozoite stage at 3 times IC50 after 24 to 48 hrs by Giesma-staining based light microscopic analysis; type: functional, organism-based; conditions: time 24-48 hrs
Plasmodium falciparum [6] = assay: Antimalarial activity against Plasmodium falciparum K1; type: functional, organism-based
Plasmodium falciparum [7] = assay: Antimalarial activity against Plasmodium falciparum 3D7; type: functional, organism-based
Plasmodium falciparum [8] = assay: Antimalarial activity against chloroquine-sensitive Plasmodium falciparum 3D7 incubated for 72 hrs by MSF assay; type: functional, organism-based; conditions: 3D7, 72 h
Plasmodium yoelii [9] = assay: Antimalarial activity against Plasmodium yoelii N67 infected in Swiss mouse assessed as parasitemia suppression at 12.5 mg/kg/day, po measured on day 4; type: functional; conditions: time 4 day
Plasmodium yoelii [10] = assay: Antimalarial activity against Plasmodium yoelii N67 infected in Swiss mouse assessed as curative rate at 12.5 mg/kg/day, po measured on day 28; type: functional; conditions: time 28 day
Plasmodium falciparum [11] = assay: Antimalarial activity against chloroquine-sensitive Plasmodium falciparum K1 incubated for 72 hrs by MSF assay; type: functional, organism-based; conditions: K1, 72 h

Structure (SMILES) | IC50 (Plasmodium falciparum [1]) [µM] | Activity (Erythrocyte) | IC50 (Plasmodium falciparum [2]) [µM] | IC50 at 24 h [3] [µM] | Activity [4] | IC50 (Falcipain 2) [µM] | IC50 (Falcipain-3) [µM] | Activity (Plasmodium falciparum [5]) | further results
COc1ccc(C(c2ccccc2O)N2CCN(c3cc(C)nc4ncnn34)CC2)cc1 (stereo not drawn) | > 25 | Toxic | – | – | – | – | – | – | –
COc1cccc(C(c2ccc(C(F)(F)F)cc2)N2CCN(c3ccnc4cc(Cl)ccc34)CC2)c1O (stereo not drawn) | 0.53 | Toxic | 3.29 | 32.9 | Non-Toxic | 5.4 | 6.2 | Active | –
COc1cccc(C(c2ccc(F)c(F)c2)N2CCN(c3ccnc4cc(Cl)ccc34)CC2)c1O (stereo not drawn) | 1.31 | Toxic | 1.4 | 17.9 | Non-Toxic | 10.4 | 10.8 | Active | –
CC(C)(C)NCc1ccc(Nc2ccnc3cc(Cl)ccc23)cc1O [GSK-369796] | – | – | – | – | – | – | – | – | IC50 (Plasmodium falciparum [6]): 0.013 µM; IC50 (Plasmodium falciparum [7]): 0.011 µM
Oc1ccccc1C(c1ccc(F)c(F)c1)N1CCN(c2ccnc3cc(Cl)ccc23)CC1 (stereo not drawn) | 0.74 | Toxic | 1.05 | 188 | Non-Toxic | 3.9 | 4.9 | Active | –
Oc1ccccc1C(c1ccc(F)c(Cl)c1)N1CCN(c2ccnc3cc(Cl)ccc23)CC1 (stereo not drawn) | 1.2 | Toxic | 0.46 | 139 | Non-Toxic | 8.7 | 10.1 | Active | –
COc1ccc(C(c2cccc(OC)c2O)N2CCN(c3ccnc4cc(Cl)ccc34)CC2)cc1 (stereo not drawn) | 1.09 | Toxic | 2.6 | 214 | Non-Toxic | 7.1 | 7.8 | – | –
Oc1ccccc1C(c1ccc(OC(F)(F)F)cc1)N1CCN(c2ccnc3cc(Cl)ccc23)CC1 (stereo not drawn) | 0.74 | Toxic | 1.24 | 104 | Non-Toxic | 4.8 | 4.7 | Active | –
COc1cccc(C(c2ccc(Cl)c(Cl)c2)N2CCN(c3ccnc4cc(Cl)ccc34)CC2)c1O (stereo not drawn) | 1.06 | Toxic | 0.66 | 172 | Non-Toxic | 4.6 | 5.9 | Active | –
Cc1ccc(C(c2ccccc2O)N2CCN(c3ccnc4cc(Cl)ccc34)CC2)cc1 (stereo not drawn) | 1.06 | Toxic | 1.28 | 134 | Non-Toxic | 6.1 | 6.7 | Active | –
CCN1CCN(CC(CC(C)C)Nc2ccnc3cc(Cl)ccc23)CC1 (stereo not drawn) | – | – | – | – | – | – | – | – | IC50 (Plasmodium falciparum [8]): 0.057 µM; Activity (Plasmodium yoelii [9]): 100%; Activity (Plasmodium yoelii [10]): 100%; IC50 (Plasmodium falciparum [11]): 0.0978 µM
Cc1ccc(C(c2ccccc2O)N2CCN(c3cc(C)nc4ncnn34)CC2)cc1 (stereo not drawn) | > 25 | Toxic | – | – | – | – | – | – | –
CCN(CC)CCCC(C)Nc1ccnc2cc(Cl)ccc12 (stereo not drawn) [CHLOROQUINE] | – | Toxic | – | – | – | – | – | – | –

Second part, led by results:

IC50 (Plasmodium falciparum [1]) [µM] | Structure (SMILES) | Activity (Erythrocyte) | IC50 (Plasmodium falciparum [2]) [µM] | IC50 at 24 h [3] [µM] | Activity [4] | IC50 (Falcipain 2) [µM] | IC50 (Falcipain-3) [µM] | Activity (Plasmodium falciparum [5]) | further results
1.46 | COc1cccc(C(c2ccc(F)c(Cl)c2)N2CCN(c3ccnc4cc(Cl)ccc34)CC2)c1O (stereo not drawn) | Toxic | – | – | – | – | – | – | –
1.41 | Oc1ccccc1C(c1ccc(C(F)(F)F)cc1)N1CCN(c2ccnc3cc(Cl)ccc23)CC1 (stereo not drawn) | Toxic | – | – | – | – | – | – | –
1.47 | COc1cccc(C(c2ccc(OC(F)(F)F)cc2)N2CCN(c3ccnc4cc(Cl)ccc34)CC2)c1O (stereo not drawn) | Toxic | – | – | – | – | – | – | –
1.65 | COc1cccc(C(c2ccc(C)cc2)N2CCN(c3ccnc4cc(Cl)ccc34)CC2)c1O (stereo not drawn) | Toxic | – | – | – | – | – | Active | –
6.87 | Cc1cc(N2CCN(C(c3ccc(F)c(F)c3)c3ccccc3O)CC2)n2ncnc2n1 (stereo not drawn) | Toxic | – | – | – | – | – | – | –
1.54 | COc1cccc(C(c2ccc(F)cc2)N2CCN(c3ccnc4cc(Cl)ccc34)CC2)c1O (stereo not drawn) | Toxic | – | – | – | – | – | – | –
3.33 | Cc1cc(N2CCN(C(c3ccc(Cl)c(Cl)c3)c3ccccc3O)CC2)n2ncnc2n1 (stereo not drawn) | Toxic | – | – | – | – | – | – | –
34.3 | Cc1cc(N2CCN(C(c3ccc(F)cc3)c3ccccc3O)CC2)n2ncnc2n1 (stereo not drawn) | Toxic | – | – | – | – | – | – | –
1.62 | COc1ccc(C(c2ccccc2O)N2CCN(c3ccnc4cc(Cl)ccc34)CC2)cc1 (stereo not drawn) | Toxic | – | – | – | – | – | – | –
